Consider 2 compounds from US20130089502A1, “PET RADIOPHARMACEUTICALS FOR DIFFERENTIAL DIAGNOSIS BETWEEN BILATERAL AND UNILATERAL CONDITIONS OF PRIMARY HYPERALDOSTERONISM” (UNIVERSITAT DES SAARLANDES, priority 2010, published 2013).

The IC50 is the concentration that inhibits the measured activity by half. A lower IC50 goes with higher potency.

Assay [1] concerns the target T1, human CYP11B2 (aldosterone synthase) (Homo sapiens, UniProt P19099).
T1 construct: expressed in transfected cells; host or cells: Y1 cells
T1 sequence (P19099 25-503): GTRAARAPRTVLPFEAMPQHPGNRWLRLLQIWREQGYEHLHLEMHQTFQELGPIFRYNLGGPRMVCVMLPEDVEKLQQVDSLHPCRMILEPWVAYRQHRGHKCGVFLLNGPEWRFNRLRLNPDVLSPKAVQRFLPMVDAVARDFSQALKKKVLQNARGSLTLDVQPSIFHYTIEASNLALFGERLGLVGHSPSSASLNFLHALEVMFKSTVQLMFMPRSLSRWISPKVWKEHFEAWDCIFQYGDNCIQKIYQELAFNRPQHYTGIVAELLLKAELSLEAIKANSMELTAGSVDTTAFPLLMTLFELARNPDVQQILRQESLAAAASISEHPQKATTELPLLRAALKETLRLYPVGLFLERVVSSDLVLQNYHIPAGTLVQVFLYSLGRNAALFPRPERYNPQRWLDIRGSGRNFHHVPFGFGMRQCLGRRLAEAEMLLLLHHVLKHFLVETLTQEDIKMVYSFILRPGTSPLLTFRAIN
Put plainly: Inhibition of human CYP11B2 (aldosterone synthase) expressed in Y1 cells. Format: cell-based. To be noted: hsCYP11B2-expressing Y1 cells; substrate 1 μM; inhibitor 0.1 nM-10 μM; 48 hours incubation. Here is the method:
(§1) Several non-radioactive fluorinated analogs of the above radioactive tracers were prepared for testing affinity for CYP11B2 (aldosterone synthase), expressed as IC50, and selectivity for CYP11B2 over CYP11B1 (11β-hydroxylase), referred to herein as the selectivity factor, in vitro as follows:
(§2) To conduct in vitro testing of nonradioactive compounds 1a*, 1b*, 1j*, 2a*, 2c*, 2d*, and 2e* to determine IC50 values for inhibition of CYP11B1 and CYP11B2, human CYP11B1 and CYP11B2 enzymes were expressed in Y1 cells using liposome/lipid-mediated DNA transfection. To evaluate CYP11B1 and CYP11B2 inhibition, hsCYP11B1- and hsCYP11B2-expressing Y1 cells were subcultured on 6-well plates (0.5×10^6 cells/well) in 2 ml of culture medium. The enzyme reaction was started after 24 hours by the addition of 1 ml culture medium containing either 11-deoxycortisol (RSS) or 11-deoxycorticosterone (DOC) as substrate and the corresponding inhibitor. RSS and DOC were dissolved in ethanol to a final test concentration of 1 μM. For determination of IC50 values, the inhibitors were added to the culture medium at concentrations between 0.1 nM-10 μM and incubated for 48 hours. Cells which were treated in the same way but without inhibitors, served as controls. As further controls, untransfected Y1 cells were also incubated with RSS and DOC, respectively. […]

Assay [2] concerns the target T2, human CYP11B1 (11β-hydroxylase) (Homo sapiens, UniProt P15538).
T2 construct: expressed in transfected cells; host or cells: Y1 cells
T2 sequence (P15538 25-503): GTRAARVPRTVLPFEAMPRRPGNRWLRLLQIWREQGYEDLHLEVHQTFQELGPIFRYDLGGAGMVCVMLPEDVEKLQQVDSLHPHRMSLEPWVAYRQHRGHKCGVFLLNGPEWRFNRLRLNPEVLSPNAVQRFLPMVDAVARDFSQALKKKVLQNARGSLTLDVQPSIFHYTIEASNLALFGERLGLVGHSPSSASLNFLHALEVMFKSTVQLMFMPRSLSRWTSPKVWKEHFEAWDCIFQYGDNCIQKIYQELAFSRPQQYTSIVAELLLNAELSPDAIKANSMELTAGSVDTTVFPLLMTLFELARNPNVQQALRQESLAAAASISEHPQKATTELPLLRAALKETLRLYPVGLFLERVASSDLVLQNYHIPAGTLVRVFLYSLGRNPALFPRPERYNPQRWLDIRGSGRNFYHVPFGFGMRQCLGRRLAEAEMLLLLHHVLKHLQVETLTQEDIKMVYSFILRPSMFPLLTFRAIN
Put plainly: Inhibition of human CYP11B1 expressed in Y1 cells, used for the selectivity factor versus CYP11B2. To be noted: ratio of IC50 values in hsCYP11B1- and hsCYP11B2-expressing Y1 cells; 48 hours incubation. Format: cell-based. The protocol:
as §1, §2

Some results are limits rather than exact numbers.

With `COc1ccc2cc(-c3cncc(OCCF)c3)ccc2c1` [Compound 1a, 3-(6-methoxy-2-naphthyl)-5-(2-fluoroethoxy)pyridine], in assay [1], half-maximal inhibition (IC50) required 0.0065 ± 0.0038 µM. Besides, in assay [2], the “Selectivity Factor (IC50 CYP11B1/IC50 CYP11B2)” value turned out to be 104.

Compound `FCCOc1ccc2cc(-c3cncc4ccccc34)ccc2c1` [Compound 1j] came in with an IC50 in assay [1] of 0.0158 ± 0.0051 µM. Also, the “Selectivity Factor (IC50 CYP11B1/IC50 CYP11B2)” value in assay [2] is reported as more than 100.
